Measured values: patent US11440923B2, “Substituted macrocyclic indole derivatives” (Bayer Aktiengesellschaft, priority 2017, dated 2022)
Structures can show the parent of a compound that is named as a salt. Where two headings read alike, the source gives them in different places.

Tests used:
[1] = target: BCL-XL (Homo sapiens (Human), UniProt Q07817); assay: Protein-protein interaction assay BCL-XL/Bad BH3 peptide (BCL-XL assay, TR-FRET); assay type: binding; conditions: read-out: BCL-XL Assay IC50 (median)
Chain of BCL-XL (Q07817 1-212): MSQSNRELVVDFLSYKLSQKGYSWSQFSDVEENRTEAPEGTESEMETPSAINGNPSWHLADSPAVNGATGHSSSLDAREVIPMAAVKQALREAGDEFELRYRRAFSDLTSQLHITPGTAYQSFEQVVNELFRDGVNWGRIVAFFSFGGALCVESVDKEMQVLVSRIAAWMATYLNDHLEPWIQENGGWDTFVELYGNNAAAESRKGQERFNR
Method: Assay 2 Protein-Protein Interaction Assay: BCL-XL/Bad BH3 Peptide (BCL-XL Assay)
The dose-dependent inhibition by the compounds described in this invention of the interaction between BCL-XL and the BH3 domain of Bad (both human) was determined using a steady state binding competition assay with time-resolved fluorescence energy transfer (TR-FRET) readout. For that purpose BCL-XL (amino acids 1-212, C-terminal fused to a hexahistidine (6×His) tag (SEQ ID 3) and a synthetic Bad BH3-derived peptide of sequence Biotin-PEG2-PEG2-[…]-Nle-[…]-amide (SEQ ID 4) served as protein receptor and tracer ligand respectively. The recombinant BCL-XL protein (expressed in E. coli) was purchased from BPS Bioscience (San Diego, Calif., USA). The Bad BH3-derived peptide can be obtained from e.g. Biosyntan (Berlin, Germany).
In the assay 11 different concentrations of each compound (0.1 nM, 0.33 nM, 1.1 nM, 3.8 nM, 13 nM, 44 nM, 0.15 μM, 0.51 μM, 1.7 μM, 5.9 μM and 20 μM) were typically measured as duplicates in the same microtiter plate. For that, 100-fold concentrated DMSO solutions were prepared by serial dilutions (1:3.4) of a 2 mM stock solution in a clear, 384-well microtiter plate (Greiner Bio-One, Frickenhausen, Germany). From there, 50 nl were transferred in a dark test plate (Greiner Bio-One, Frickenhausen, Germany). The assay was initiated by addition of 2 μL of a 2,5-fold concentrated His-BCL-XL solution (usually for a 1 nM end concentration in 5 μL reaction volume) in aqueous assay buffer [50 mM Tris/HCl pH 7, 100 mM sodium chloride (NaCl), 50 mM potassium fluoride (KF), 0.005% Tween-20, 2 mM DTT, 0.1% bovine gamma globulin (BGG)] to the compounds in the assay plate. This was followed by a 10-minute incubation step at 22° C. for pre-equilibration of the putative complex between His-BCL-XL and the compounds. After that, 3 μL of a 1.67-fold concentrated solution (in assay buffer) consisting of Bad BH3-derived peptide (1 nM end concentration) and TR-FRET detection reagents [1.67 nM anti-His-Eu cryptate and 1.67 nM streptavidin-XL665 (both from Cisbio Bioassays, Codolet, France)], were added.
The mixture was incubated in the dark for one hour at 22° C. and then overnight at 4° C. The formation of BCL-XL/Bad complexes was determined by measuring the resonance energy transfer of the anti-His- Eu-cryptate antibody to the streptavidin-XL665 present in the reaction. For that purpose, the fluorescence emission at 620 nm and 665 nm after excitation at 330-350 nm was measured in a TR-FRET measuring instrument, for instance a Rubystar or a Pherastar (both from BMG Lab Technologies, Offenburg, Germany) or a Viewlux (Perkin-Elmer). The ratio of the emission at 665 nm and at 622 nm was used as indicator of the amount of BCL-XL/Bad complexes present.
The resulting data (ratio) were normalized, taking 0% inhibition as the mean value of control measurements (usually 32 data points) where all reagents were included. In this case 50 nl DMSO were used instead of compounds. […] IC50 values were determined by regression analysis based on a 4 parameter equation (minimum, maximum, IC50, Hill; Y=Max+(Min−Max)/(1+(X/IC50)^Hill) using the Screener Software (Genedata).

[2] = test system: SUDHL5 cells; assay: Induction of cytotoxicity in SUDHL5 cells (Assay 6); assay type: cell-based; conditions: 5 h, CellTiter-Glo, read-out: Cytotox SUDHL5 IC50 (median)
In short: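 Run alongside apoptosis measurements, this cytotoxicity readout used cells treated with compound for 5 h at 37 °C and quantified ATP-based luminescence with CellTiter-Glo.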

| SMILES | IC50 [1] | IC50 ([2]; Homo sapiens, SU-DHL-5, 5 h) | IC50 [2] |
| --- | --- | --- | --- |
| Cc1c2c(nn1C)C(C)OCCCCn1c(C(=O)O)c(CCCOc3cccc4ccccc34)c3cccc-2c31 (racemic) [Example 1, (rac)-2,3,15-trimethyl-7-[3-(naphthalen-1-yloxy)propyl]-2,10,11,12,13,15-hexahydropyrazolo[4′,3′:9,10][1,6]oxazacycloundecino[8,7,6-hi]indole-8-carboxylic Acid (Mixture of Stereoisomers)] | > 20 µM | 2.8 µM | – |
| Cc1c2c(nn1C)C(CCN1CCOCC1)OCCCCn1c(C(=O)O)c(CCCOc3cccc4cc(F)ccc34)c3ccc(F)c-2c31 (single isomer, unassigned; enantiomer 1) [Example 20, 4-fluoro-7-{3-[(6-fluoronaphthalen-1-yl)oxy]propyl}-2,3-dimethyl-15-[2-(morpholin-4-yl)ethyl]-2,10,11,12,13,15-hexahydropyrazolo[4′,3′:9,10][1,6]oxazacycloundecino[8,7,6-hi]indole-8-carboxylic Acid—N-ethylethanamine (Enantiomer 1)] | > 20 µM | 0.033 µM | – |
| CCC1OCCCCn2c(C(=O)O)c(CCCOc3cccc4ccccc34)c3ccc(Cl)c(c32)-c2c1nn(C)c2C (single isomer, unassigned; enantiomer 1) [Example 29, (+)-4-chloro-15-ethyl-2,3-dimethyl-7-{3-[(naphthalen-1-yl)oxy]propyl}-2,10,11,12,13,15-hexahydropyrazolo[4′,3′:9,10][1,6]oxazacycloundecino[8,7,6-hi]indole-8-carboxylic Acid—N-ethylethanamine Salt (Enantiomer 1)] | 14.2 µM | – | 1.1 µM |
| CCc1c2c(nn1C)C(CCN1CCOCC1)OCCCCn1c(C(=O)O)c(CCCOc3cccc4cc(F)ccc34)c3ccc(Cl)c-2c31 (racemic) [Example 22, (rac)-4-chloro-3-ethyl-7-{3-[(6-fluoronaphthalen-1-yl)oxy]propyl}-2-methyl-15-[2-(morpholin-4-yl)ethyl]-2,10,11,12,13,15-hexahydropyrazolo[4′,3′:9,10][1,6]oxazacycloundecino[8,7,6-hi]indole-8-carboxylic Acid] | > 20 µM | 0.011 µM | – |
| CCc1c2c(nn1C)C(CCC1CCOCC1)OCCCCn1c(C(=O)O)c(CCCOc3cccc4cc(F)ccc34)c3ccc(Cl)c-2c31 (single isomer, unassigned; enantiomer 2) [Example 62, (−)-4-chloro-3-ethyl-7-{3-[(6-fluoronaphthalen-1-yl)oxy]propyl}-2-methyl-15-[2-(oxan-4-yl)ethyl]-2,10,11,12,13,15-hexahydropyrazolo[4′,3′:9,10][1,6]oxazacycloundecino[8,7,6-hi]indole-8-carboxylic Acid (Enantiomer 2)] | > 20 µM | – | 6.3 µM |
| CCc1c2c(nn1C)C(CCN1CCOCC1)OCCCCn1c(C(=O)O)c(CCCOc3cccc4cc(F)ccc34)c3ccc(F)c-2c31 (single isomer, unassigned; enantiomer 2) [Example 51, (−)-3-ethyl-4-fluoro-7-{3-[(6-fluoronaphthalen-1-yl)oxy]propyl}-2-methyl-15-[2-(morpholin-4-yl)ethyl]-2,10,11,12,13,15-hexahydropyrazolo[4′,3′:9,10][1,6]oxazacycloundecino[8,7,6-hi]indole-8-carboxylic Acid (Enantiomer 2)] | > 20 µM | – | 3.4 µM |
| CCc1c2c(nn1C)C(CCO)OCCCCn1c(C(=O)O)c(CCCOc3cccc4cc(F)ccc34)c3ccc(Cl)c-2c31 (racemic) [Example 44, (rac)-4-chloro-3-ethyl-7-{3-[(6-fluoronaphthalen-1-yl)oxy]propyl}-(15-rac)-(2-hydroxyethyl)-2-methyl-2,10,11,12,13,15-hexahydropyrazolo[4′,3′:9,10][1,6]oxazacycloundecino[8,7,6-hi]indole-8-carboxylic Acid] | 12.5 µM | 0.14 µM | – |
| CCc1c2c(nn1C)C(CCOC)OCCCCn1c(C(=O)O)c(CCCOc3cccc4cc(F)ccc34)c3ccc(Cl)c-2c31 (racemic) [Example 41, (rac)-4-chloro-3-ethyl-7-{3-[(6-fluoronaphthalen-1-yl)oxy]propyl}-(15-rac)-(2-methoxyethyl)-2-methyl-2,10,11,12,13,15-hexahydropyrazolo[4′,3′:9,10][1,6]oxazacycloundecino[8,7,6-hi]indole-8-carboxylic Acid] | 15 µM | 0.17 µM | – |

Further lines, with some results ahead:

| IC50 [1] | SMILES | IC50 ([2]; Homo sapiens, SU-DHL-5, 5 h) | IC50 [2] |
| --- | --- | --- | --- |
| > 20 µM | Cc1c2c(nn1C)C(CCN1CCOCC1)OCCCCn1c(C(=O)O)c(CCCOc3cccc4ccccc34)c3cccc-2c31 (single isomer, unassigned; stereoisomer 2) [Example 6, 2,3-dimethyl-15-[2-(morpholin-4-yl)ethyl]-7-[3-(naphthalen-1-yloxy)propyl]-2,10,11,12,13,15-hexahydropyrazolo[4′,3′:9,10][1,6]oxazacycloundecino[8,7,6-hi]indole-8-carboxylic Acid (Stereoisomer 2)] | – | 22 µM |
| > 20 µM | Cc1c2c(nn1C)C(CCO)OCCCCn1c(C(=O)O)c(CCCOc3cccc4ccccc34)c3ccc(Cl)c-2c31 (racemic) [Example 26, (rac)-4-chloro-15-(2-hydroxyethyl)-2,3-dimethyl-7-{3-[(naphthalen-1-yl)oxy]propyl}-2,10,11,12,13,15-hexahydropyrazolo[4′,3′:9,10][1,6]oxazacycloundecino[8,7,6-hi]indole-8-carboxylic Acid] | 0.4 µM | – |
| 14.7 µM | CCc1c2c(nn1C)C(CC(C)(C)O)OCCCCn1c(C(=O)O)c(CCCOc3cccc4cc(F)ccc34)c3ccc(Cl)c-2c31 (racemic) [Example 52, (rac)-4-chloro-3-ethyl-7-{3-[(6-fluoronaphthalen-1-yl)oxy]propyl}-(15-rac)-(2-hydroxy-2-methylpropyl)-2-methyl-2,10,11,12,13,15-hexahydropyrazolo[4′,3′:9,10][1,6]oxazacycloundecino[8,7,6-hi]indole-8-carboxylic Acid] | 0.38 µM | – |
| > 20 µM | Cc1c2c(nn1C)C(C1CC1)OCCCCn1c(C(=O)O)c(CCCOc3cccc4ccccc34)c3ccc(Cl)c-2c31 (single isomer, unassigned; enantiomer 1) [Example 35, (+)-4-chloro-15-cyclopropyl-2,3-dimethyl-7-{3-[(naphthalen-1-yl)oxy]propyl}-2,10,11,12,13,15-hexahydropyrazolo[4′,3′:9,10][1,6]oxazacycloundecino[8,7,6-hi]indole-8-carboxylic Acid N-ethylethanamine Salt (Enantiomer 1)] | – | 2 µM |
| > 20 µM | CCc1c2c(nn1C)C(CCN1CCOCC1)OCCCCn1c(C(=O)O)c(CCCOc3cccc4cc(F)ccc34)c3ccc(F)c-2c31 (single isomer, unassigned; enantiomer 1) [Example 50, (+)-3-ethyl-4-fluoro-7-{3-[(6-fluoronaphthalen-1-yl)oxy]propyl}-2-methyl-15-[2-(morpholin-4-yl)ethyl]-2,10,11,12,13,15-hexahydropyrazolo[4′,3′:9,10][1,6]oxazacycloundecino[8,7,6-hi]indole-8-carboxylic Acid (Enantiomer 1)] | – | 0.016 µM |
